According to patent US20030207930A1 (priority 2000, published 2003):
Where two headings read alike, the source gives them in different places.

Columns and labels:
[1] = dissolving profile of film-coated tablet; assay type: physicochemical; conditions: within 15 minutes
Experimental: In addition, an improved dissolving profile in a tablet can be assured. In studies of the dissolving profile, it was established that the calcium salt, especially the tetrahydrate thereof, is released by 100% from a film-coated tablet within 15 minutes.
In addition, an improved dissolving profile in a tablet can be assured. In studies of the dissolving profile, it was established that the magnesium salt, especially the hexahydrate thereof, is released by 100% from a film-coated tablet within 15 minutes.

[2] = intrinsic dissolving rates; assay type: physicochemical; conditions: pH 1, pH 4.5 and pH 6.8; compared with valsartan
[3] = 25° C., 4 hours
[4] = open container and sealed ampoule
[5] = N2 atmosphere, heating rate 10 K/min
[6] = hygroscopicity of the material obtained; assay type: physicochemical; conditions: material as obtained
[7] = step 1, relative humidity 40% (cycle 40-90)
[8] = step 2, relative humidity 50% (cycle 40-90)
[9] = step 3, relative humidity 60% (cycle 40-90)
[10] = step 4, relative humidity 70% (cycle 40-90)
[11] = step 5, relative humidity 80% (cycle 40-90)
[12] = step 6, relative humidity 90% (cycle 40-90)
[13] = step 7, relative humidity 80% (first cycle 90-0)
[14] = step 8, relative humidity 70% (first cycle 90-0)
[15] = step 9, relative humidity 60% (first cycle 90-0)
[16] = step 10, relative humidity 50% (first cycle 90-0)
[17] = step 11, relative humidity 40% (first cycle 90-0)
[18] = step 12, relative humidity 30% (first cycle 90-0)
[19] = step 13, relative humidity 20% (first cycle 90-0)
[20] = step 14, relative humidity 10% (first cycle 90-0)
[21] = step 15, relative humidity 0% (first cycle 90-0)
[22] = step 16, relative humidity 10% (cycle 0-90)
[23] = step 17, relative humidity 20% (cycle 0-90)
[24] = step 18, relative humidity 30% (cycle 0-90)
[25] = step 19, relative humidity 40% (cycle 0-90)
[26] = step 20, relative humidity 50% (cycle 0-90)
[27] = step 21, relative humidity 60% (cycle 0-90)
[28] = step 22, relative humidity 70% (cycle 0-90)
[29] = step 23, relative humidity 80% (cycle 0-90)
[30] = step 24, relative humidity 90% (cycle 0-90)
[31] = step 25, relative humidity 0% (second cycle 90-0)
[32] = step 26, relative humidity (starting value)

Molecule: CCCCC(=O)N(Cc1ccc(-c2ccccc2-c2nn[n-]n2)cc1)C(C(=O)[O-])C(C)C.[Ca+2] (centres unmarked) [calcium salt of valsartan]
- release from a film-coated tablet [1]: 100%
- intrinsic dissolving rates [2]: improved values over those of valsartan

Molecule: CCCCC(=O)N(Cc1ccc(-c2ccccc2-c2nn[n-]n2)cc1)C(C(=O)[O-])C(C)C.[K+].[K+] (centres unmarked) [di-potassium salt of valsartan]
- intrinsic dissolving rates [2]: improved values over those of valsartan

Molecule: CCCCC(=O)N(Cc1ccc(-c2ccccc2-c2nnn[nH]2)cc1)[C@H](C(=O)[O-])C(C)C.CCCCC(=O)N(Cc1ccc(-c2ccccc2-c2nnn[nH]2)cc1)[C@H](C(=O)[O-])C(C)C.O.O.O.O.O.O.[Mg+2] [hexahydrate of the magnesium salt of (S)-N-(1-carboxy-2-methylprop-1-yl)-N-pentanoyl-N-[2′-(1H-tetrazol-5-yl)biphenyl-4-ylmethyl]-amine]
- water absorption or water loss (overall finding) ([3]; range of 20 to 80% relative humidity, measurement error about 0.1%): weak, reproducible water absorption or water loss
- water absorption or loss in % [3, 7]: 0.06%
- water absorption or loss in % [3, 8]: 0.14%
- water absorption or loss in % [3, 9]: 0.19%
- water absorption or loss in % [3, 10]: 0.25%
- water absorption or loss in % [3, 11]: 0.41%
- water absorption or loss in % [3, 12]: 0.58%
- water absorption or loss in % [3, 13]: 0.32%
- water absorption or loss in % [3, 14]: 0.22%
- water absorption or loss in % [3, 15]: 0.14%
- water absorption or loss in % [3, 16]: 0.08%
- water absorption or loss in % [3, 17]: 0.16%
- water absorption or loss in % [3, 18]: −0.03%
- water absorption or loss in % [3, 19]: −0.07%
- water absorption or loss in % [3, 20]: −0.12%
- water absorption or loss in % [3, 21]: −4.3%
- water absorption or loss in % [3, 22]: −0.79%
- water absorption or loss in % [3, 23]: −0.14%
- water absorption or loss in % [3, 24]: −0.05%
- water absorption or loss in % [3, 25]: 0.02%
- water absorption or loss in % [3, 26]: 0.09%
- water absorption or loss in % [3, 27]: 0.14%
- water absorption or loss in % [3, 28]: 0.20%
- water absorption or loss in % [3, 29]: 0.28%
- water absorption or loss in % [3, 30]: 0.51%
- water absorption or loss in % [3, 31]: −3.68%
- water absorption or loss in % [3, 32]: −0.01%
- water content in stability test [4]: remains constant
- weight loss or water loss in % ([5]; 25° C.): 0%
- weight loss or water loss in % ([5]; 50° C.): 1.2%
- weight loss or water loss in % ([5]; 75° C.): 4.2%
- weight loss or water loss in % ([5]; 100° C.): 11.0%
- weight loss or water loss in % ([5]; 125° C.): 16.7%
- weight loss or water loss in % ([5]; 150° C.): 17.7%
- weight loss or water loss in % ([5]; 175° C.): 18.3%
- weight loss or water loss in % ([5]; 200° C.): 18.5%
- weight loss or water loss in % ([5]; 225° C.): 18.7%
- weight loss or water loss in % ([5]; 250° C.): 18.9%
- weight loss or water loss in % ([5]; 275° C.): 19.3%

Molecule: (S)-N-(1-carboxy-2-methyl-prop-1-yl)-N-pentanoyl-N-[2′-(1H-tetrazol-5-yl)-biphenyl-4-ylmethyl]-amine calcium salt tetrahydrate
- water absorption or loss (overall finding) ([3]; 0 to 90% relative humidity, measurement error about 0.1%): no measurable water absorption or loss
- water absorption or loss in % [3, 7]: 0.04%
- water absorption or loss in % [3, 8]: 0.04%
- water absorption or loss in % [3, 9]: 0.03%
- water absorption or loss in % [3, 10]: 0.02%
- water absorption or loss in % [3, 11]: 0.02%
- water absorption or loss in % [3, 12]: 0.00%
- water absorption or loss in % [3, 13]: 0.02%
- water absorption or loss in % [3, 14]: 0.02%
- water absorption or loss in % [3, 15]: 0.02%
- water absorption or loss in % [3, 16]: 0.02%
- water absorption or loss in % [3, 17]: 0.02%
- water absorption or loss in % [3, 18]: 0.01%
- water absorption or loss in % [3, 19]: 0.01%
- water absorption or loss in % [3, 20]: 0.00%
- water absorption or loss in % [3, 21]: −0.01%
- water absorption or loss in % [3, 22]: 0.00%
- water absorption or loss in % [3, 23]: 0.00%
- water absorption or loss in % [3, 24]: 0.00%
- water absorption or loss in % [3, 25]: 0.00%
- water absorption or loss in % [3, 26]: 0.00%
- water absorption or loss in % [3, 27]: 0.01%
- water absorption or loss in % [3, 28]: 0.00%
- water absorption or loss in % [3, 29]: −0.01%
- water absorption or loss in % [3, 30]: −0.02%
- water absorption or loss in % [3, 31]: −0.02%
- water absorption or loss in % [3, 32]: 0.00%
- water content in stability test [4]: remains constant
- weight loss or water loss in % ([5]; 25° C.): 0%
- weight loss or water loss in % ([5]; 50° C.): 0%
- weight loss or water loss in % ([5]; 75° C.): 0.5%
- weight loss or water loss in % ([5]; 100° C.): 3.5%
- weight loss or water loss in % ([5]; 125° C.): 10.2%
- weight loss or water loss in % ([5]; 150° C.): 12.4%
- weight loss or water loss in % ([5]; 175° C.): 12.8%
- weight loss or water loss in % ([5]; 200° C.): 12.9%
- weight loss or water loss in % ([5]; 225° C.): 12.9%
- weight loss or water loss in % ([5]; 250° C.): 13.0%
- weight loss or water loss in % ([5]; 275° C.): 13.2%

Molecule: (S)-N-(1-carboxy-2-methyl-prop-1-yl)-N-pentanoyl-N-[2′-(1H-tetrazol-5-yl)-biphenyl-4-ylmethyl]-amine dipotassium salt [Example 4]
- hygroscopicity [6]: hygroscopic

Molecule: (S)-N-(1-carboxy-2-methyl-prop-1-yl)-N-pentanoyl-N-[2′-(1H-tetrazol-5-yl)-biphenyl-4-ylmethyl]-amine disodium salt [Example 5]
- hygroscopicity [6]: hygroscopic

Molecule: Bis-dibutylammonium Salt of Valsartan [Example 16]
- hygroscopicity [6]: slightly hygroscopic

Molecule: Hydrate of Valsartan Disodium Salt (2.4 ±1.0 Mole H2O) [Example 11]
- hygroscopicity [6]: slightly hygroscopic

Molecule: Hydrate of the Valsartan Dipotassium Salt (3.4±1.0 mole H2O) [Example 12]
- hygroscopicity [6]: slightly hygroscopic
